Source: article PMC7136958, “Targeting the pregnane X receptor using microbial metabolite mimicry” (EMBO Molecular Medicine, 2020)
Values joined by “and” are separate entries in the source; they are usually repeats but may differ in a detail not shown here. Identical values can stand only once.

Legend:
IL-8 mRNA in HIOs = experiment: IL-8 mRNA in iPSC-derived human intestinal organoids exposed to cytokine cocktail; type: cell-based; design: key to IL8 mRNA: relative IL-8 mRNA level, normalized to GAPDH; settings: for basal IL-8 expression: 10 and 25 μM; for IL-8 mRNA expression in presence of cytokines: 12 h of exposure; for IL8 mRNA: HIO, triplicate
Method: Caco‐2 cell (ATCC, Manassas, VA) passages 25–35 were maintained and expanded in culture flasks in Dulbecco's modified Eagle's medium (DMEM) with 10% FBS and 1× antibiotic–antimycotic. The cells were kept in a humidified 37°C incubator with 5% CO2. Media were changed every 2–3 days, and cells were passaged 1–2 times a week. For all experiments, Caco‐2 cells (5 × 10^4 cells/ml) were seeded into 12‐well Transwell inserts or coverslips and cultured for 3 weeks. HIOs were generated from iPSCs as described previously (Spence et al, 2011), with some modifications. The iPSC cell line IISH1i‐BM1 (WiCell, Madison, WI) was cultured on Matrigel plates to 80% confluence in mTeSR™ 1 medium (Stem Cell Technologies, Seattle, WA) and differentiated to endoderm using Definitive Endoderm Kit (Stem Cell Technologies., Seattle, WA) for 4 days with daily media changes. Endoderm was then differentiated to hindgut for 5 days with the addition of FGF‐4 (500 ng/ml; Peprotech, Rocky Hill, NJ) and Chir99021 (3 μM; Cayman, Ann Arbor, MI) in RPMI media supplemented with 2% FBS. Floating hindgut spheroids were collected on days 3–5 of hindgut differentiation and suspended in Matrigel beads for HIO differentiation. HIOs were maintained in WENRAS media (Fujii et al, 2015), which maintains proliferation in the culture. Stock HIOs were passaged weekly by removing Matrigel with Cell Recovery Solution (Corning, NY) and mechanically breaking up organoids with pipetting. HIOs were seeded into new Matrigel beads at a 1:3 split, using WENRAS with added Rock Inhibitor Y‐27632 (10 μM) and Chir99021 (3 μM; Cayman., Ann Arbor, MI) for the first 2 days of culture.
HIOs and Caco‐2 were exposed to a pro‐inflammatory cytokine cocktail (10 ng/ml IFN‐γ, 10 ng/ml TNF‐α, 50 ng/ml IL‐1β) for 2–24 h in combination with DMSO or FKK5 and FKK6 compounds (10 and 25 μm). Relative mRNA levels of IL‐8 and IL‐6 were determined using quantitative real‐time PCR, with normalization to GAPDH. RNA was isolated using an RNeasy Mini Kit (Qiagen) as per the manufacturer's instructions. On column DNase (Qiagen) was used to remove any contaminating DNA. Next, cDNA was formed using iScript cDNA Synthesis Kit (Bio‐Rad) and 100 ng RNA. qRT–PCR was performed with SsoAdvanced Universal SYBR Green Kit (Bio‐Rad). The following primers were used: IL‐8 Forward: […]; IL‐8 Reverse: […]; IL‐6 Forward: […]; IL‐6 Reverse: […]; GAPDH Forward: […]; GAPDH Reverse: […]. For immunofluorescent staining of NF‐ĸB translocation to the cell nucleus, HIOs and Caco‐2 cell monolayers were fixed in 4% formaldehyde (in 1 × PBS) overnight at 4°C. The formaldehyde was removed by washing with 1 × PBS, and an antigen retrieval step was performed by incubating in 10 mM sodium citrate buffer in a vegetable steamer for 20 min. The samples were then blocked with normal donkey serum (10% in PBS with 0.3% Triton X‐100) for 1 h. Samples were incubated overnight with primary antibodies: rabbit anti‐NF‐κB p65 (D14E12 # 8242, 1:400 dilution, Cell Signaling Technology, Danvers MA), then immersed in Alexa Fluor® 555 donkey anti‐rabbit secondary antibody (A‐31572, Life Technologies) at a 1:500 dilution. Nuclei were stained with Hoechst 33342 (Life Technologies). The samples were then imaged using a Zeiss LSM880 Confocal/Multiphoton Upright Microscope, with 3‐D image rendering using Volocity. For controls, normal rabbit IgG (#2729S, Life Technologies) was used.

[1] = test system: PXR occupancy of CYP3A4 and MDR1 promoter; experiment: Chromatin immunoprecipitation (ChIP) in PXR-transfected LS174T cells; settings: 10 μM
Method: LS174T cells were transfected with pSG5‐PXR (2 μg/plate/1 × 10^7 cells). […] Briefly, cells were chemically cross‐linked with formaldehyde in culture media for 15 min at room temperature. […] Cells were rinsed twice with cold PBS (phosphate‐buffered saline) (pH 7.5) and scraped in PBS supplemented with PIC (protease inhibitor cocktail).
Cell pellets were collected and immediately resuspended in immunoprecipitation (IP) buffer (150 mM NaCl (sodium chloride), 50 mM Tris–HCl at pH 7.5, 5 mM EDTA (ethylenediaminetetraacetic acid), 0.5% NP‐40, 1% Triton X‐100). The nuclei were centrifuged at 12,000 × g for 1 min and resuspended in fresh IP buffer. Chromatin was sheared by sonication to an average size of 0.2‐0.9 kb. Lysates were cleared by centrifugation at 12,000 × g for 10 min. […] 10% (wt/vol) Chelex 100 was added to the beads followed by boiling of the suspension and centrifugation at 12,000 × g for 1 min to obtain chromatin.
Purified chromatin DNA was used to perform RT–qPCR. […] Data were analyzed using SDS 2.2.1 program (ABI Biotechnology).

468 kinases = experiment: DiscoverX scanMAX kinase panel (KINOMEscan); type: binding, human; settings: for kinase inhibition (in words): panel of 468 kinases
Method: Kinase Assays. The kinase inhibition assays were conducted by DiscoverX on a platform assay by Ambit BioSciences as described previously 16,17. FKK6 was screened at a single concentration of 10 μM in duplicate. The scanMAXSM assay panel measures 468 kinases
(https://www.discoverx.com/services/drug-discovery-development-services/kinase-profiling/kinomescan/scanmax). The assays measure a compound’s ability to inhibit binding of a canonical ligand substrate, with 0% activity of control corresponding to full inhibition and 100% activity of control to no inhibition. […]
quantitative measure of compound selectivity based on the number of kinase hits (enzymes inhibited) divided by the total number of distinct kinases tested. Three different activity cut-offs were analyzed – S(35) or % activity of control < 35; S(10) or % activity of control < 10; and S(1) or % activity of control < 1. To illustrate effect or lack of effect, an image of the entire family of kinases tested were grouped by families and S(35). The TREEspot Kinase dendrogram image was generated using TREEspot™ Software Tool and reprinted with permission from KINOME scan®, a division of DiscoveRx […]

S. typhimurium 14038 = experiment: Salmonella invasion (gentamicin protection assay) in Caco-2 monolayers; type: cell-based, Salmonella typhimurium; settings: for cytokine-induced salmonella invasion: 10 and 25 μM, vs cytokines only; for Salmonella CFU/ml: Caco-2 cells, triplicate
Method: FKK compounds were tested for their ability to prevent Salmonella invasion in vitro in non‐inflamed and inflamed cell cultures. Overnight cultures of S. typhimurium 14038 were diluted to OD600 0.01 and injected into with HIOs or immersed over Caco‐2 monolayers for 1 h at 37°C. The invasive ability of Salmonella was assessed using the gentamicin protection assay (Gagnon et al, 2013). Bacterial adhesion scenarios to the Caco‐2 surface were set up as described above. Non‐adhered bacteria were removed by washing twice in PBS, followed by incubation with 1 ml gentamicin (150 μg/ml in DMEM) for 1 h at 37°C to kill the adhered extracellular bacteria. Dead bacteria were removed by washing twice in PBS, followed by incubation with 500 μl 0.1% Triton X‐100 for 15 min at 37°C to lyse the HIOs and Caco‐2, and release the intracellular (invaded) bacteria. Serial fold dilutions and plating were then employed to determine CFU/ml. We normalized to total protein using Bradford assay.

[2] = compound 10µm, no cytokines, 2 hr
[3] = cytokines + compound 10µm, 2 hr
[4] = cytokines + compound 25µm, 2 hr
[5] = compound 10µm, no cytokines, 6 hr
[6] = compound 10µm, no cytokines, 12 hr
[7] = compound 25µm, no cytokines, 6 hr
[8] = cytokines + compound 10µm, 6 hr
[9] = cytokines + compound 25µm, 6 hr
[10] = cytokines + compound 25µm, 12 hr
[11] = cytokines + compound 10µm, 12 hr

Row | SMILES | basal IL-8 expression (IL-8 mRNA in HIOs) | IL-8 mRNA expression in presence of cytokines (IL-8 mRNA in HIOs) | IL8 mRNA (IL-8 mRNA in HIOs; [2]) | IL8 mRNA (IL-8 mRNA in HIOs; [3]) | IL8 mRNA (IL-8 mRNA in HIOs; [4]) | kinase inhibition (in words) (468 kinases) | cytokine-induced salmonella invasion (S. typhimurium 14038) | Salmonella CFU/ml (S. typhimurium 14038; [5]) | Salmonella CFU/ml (S. typhimurium 14038; [6]) | Salmonella CFU/ml (S. typhimurium 14038; [7]) | Salmonella CFU/ml (S. typhimurium 14038; [8]) | Salmonella CFU/ml (S. typhimurium 14038; [9]) | Salmonella CFU/ml (S. typhimurium 14038; [10]) | salmonella invasion, compound alone (S. typhimurium 14038; no cytokines) | also measured
1 | C#CCC(O)(c1ccncc1)c1cc2ccccc2n1S(=O)(=O)c1ccccc1 (stereo not drawn) [FKK6] | no significant effect | significantly reduced | 17.457 and 16.5395 and 13.4302 | 87.755 and 95.5702 and 80.4889 | 19.632 and 32.9894 and 27.3407 | neither of these compounds inhibited the kinases tested | significantly decreased | 3008 CFU/ml and 3000 CFU/ml and 1800 CFU/ml | 1840 CFU/ml and 3520 CFU/ml and 2960 CFU/ml | 2076 CFU/ml and 2290 CFU/ml and 2980 CFU/ml | 2276 CFU/ml and 2820 CFU/ml and 1500 CFU/ml | 1940 CFU/ml and 1870 CFU/ml and 1600 CFU/ml | 2520 CFU/ml and 1360 CFU/ml | No significant effect | PXR occupancy of proximal CYP3A4 and MDR1 promoter (semi-quantitative ChIP) [1]: augmented PXR occupancy; Interactions Mapped (TREEspot) (468 kinases; 10 μM): 0; Number of Hits, S(1) (468 kinases; 10 μM, 403 non-mutant kinases): 0; Number of Hits, S(10) (468 kinases; 10 μM, 403 non-mutant kinases): 0; Number of Hits, S(35) (468 kinases; 10 μM, 403 non-mutant kinases): 0; Salmonella CFU/ml (S. typhimurium 14038; compound 25µm, no cytokines, 12 hr): 1360 CFU/ml and 2480 CFU/ml and 2320 CFU/ml
2 | O=C(c1ccncc1)c1cc2ccccc2n1S(=O)(=O)c1ccccc1 [FKK5, (1-(phenylsulfonyl)-1H-indol-2-yl)(pyridin-4-yl)methanone] | no significant effect | significantly reduced | 18.0113 and 18.2375 and 29.1251 | 84.3969 and 82.9774 and 82.3934 | 91.455 and 107.347 and 106.247 | neither of these compounds inhibited the kinases tested | significantly decreased | 5980 CFU/ml and 4820 CFU/ml and 5870 CFU/ml | 5920 CFU/ml and 4240 CFU/ml and 5520 CFU/ml | 4940 CFU/ml and 4950 CFU/ml and 4400 CFU/ml | 5800 CFU/ml and 5710 CFU/ml and 4100 CFU/ml | 3700 CFU/ml and 3900 CFU/ml and 3270 CFU/ml | 3040 CFU/ml and 3240 CFU/ml and 2560 CFU/ml | No significant effect | IL8 mRNA (IL-8 mRNA in HIOs; compound 25µm, no cytokines, 2 hr): 28.3595 and 38.1574 and 25.5014; IL8 mRNA (IL-8 mRNA in HIOs; [11]): 1568.63 and 1202.46 and 1346.22; IL8 mRNA (IL-8 mRNA in HIOs; [10]): 1661.53 and 1048.7 and 891.557; MDR1 Fold Expression (2-ΔΔCt) ([1]; relative to DMSO = 1, each column a repeat experiment (Fig 1d)): 3.894 and 3.803 and 2.576 and 4.071; Salmonella CFU/ml (S. typhimurium 14038; [11]): 2240 CFU/ml and 4480 CFU/ml and 4320 CFU/ml
